Measurements taken from patent US10301287B2, “Solid forms of cenicriviroc mesylate and processes of making solid forms of cenicriviroc mesylate” (Tobira Therapeutics, Inc., priority 2016, dated 2019).

How the values were obtained:
[1] = Particle size according to USP <429> (laser light diffraction); format: physicochemical
Procedure: In some embodiments, the particle size and the particle size distribution (e.g., D90, D50, and D10) of a compound of the invention is determined by the laser light diffraction particle size distribution analysis. The particle size distribution is determined in accordance with the Fraunhofer light diffraction method. In this method, a coherent laser beam passes through the sample and the resulting diffraction pattern is focused on a multi-element detector. Since the diffraction pattern depends, among other parameters, on particle size, the particle size distribution can be calculated based on the measured diffraction pattern of the sample. In one embodiment, the particle size and the particle size distribution is measured according to U.S. Pharmacopeia (USP) <429>.
Particle Size: The particle size of the Micronized CVC mesylate Form A and the non-micronized CVC mesylate Form A were determined according to USP <429> as shown in Table 5.

[2] = Flow properties, Revolution Powder Analyser; format: physicochemical; conditions: for Avalanche Angle / Avalanche Energy / Avalanche Time / Break Energy / Rest Angle: drum rotation speed 0.3 rpm; for Interpretation (flow): from rest angle, Table 10
Procedure: Flow Properties: The flow properties of the samples were analysed using a Revolution Powder Analyser. Approximately 100 ml of the sample is placed in a sample drum which has two borosilicate glass sides. A motor turns two high precision silicone rollers, which in turn rotate the drum. A digital camera with the assistance of cold cathode backlight illumination takes images of the powder during the rotation process. Using a drum rotation speed of 0.3 rpm the time to avalanche, avalanche angle, avalanche energy, break energy and rest angle are measured. The software calculates these properties by analysing the images produced as the drum is rotated. The results of these properties can be used to assess the flow of the bulk powder. The interpretation of the rest angle (angle of repose) are given in Table 10 (see USP method <1174>; see also, Carr, R. L. Evaluating Flow Properties of Solids. Chem Eng. 1965, 72, 163-168).

[3] = BET surface area by multipoint nitrogen adsorption; format: physicochemical
Procedure: Samples were analysed for BET (Brunauer-Emmett-Teller) surface area by a multipoint Nitrogen adsorption method (volumetric technique) using a Micromeritics TriStar 3020 instrument. The sample degassing was undertaken using a Micromeritics FlowPrep 060 applying flowing argon of 99.995% purity at a flow rate of approximately 20 cc/min for two hours at 20° C. Samples were degassed in their respective analysis tubes and transferred directly to the TriStar II immediately after the degassing period.

[4] = Tapped bulk density, compressibility (Carr's) index and Hausner ratio; format: physicochemical; set-up: Compressibility (Carr's) Index: scale not given here; conditions: for Interpretation (flow): from average compressibility index / Hausner ratio, Tables 7 and 8
Procedure: Tapped Bulk Density: Tapped bulk density analysis was performed by pouring powder that had been sieved through a 1 mm Retsch stainless steel test sieve into a clean, dry pre-weighed 50 ml measuring cylinder. Powder was added to a total volume of 45-50 ml without compacting the sample. The mass and the initial volume (V0) were recorded. The sample was tapped using a Copley JV2000 tapped density tester using the following number of taps: 10, 490, 750 and sets of 1250 taps up to a total of 10,000 taps (Table 6). The volume was recorded after each set of taps and the sample was tapped until it reached constant volume (Vf). For these samples the 10,000 tap volume was used as Vf. Each sample was analysed in duplicate and the tapped density, compressibility index (Carr's index) and Hausner ratios were calculated using the formulae given below. The results from the duplicate analysis were averaged and the average result was used to assess the flow properties of the sample, using the parameters given in Table 7 (see “The Science of Dosage Form Design”, ME Aulton, 1988) and Table 8 (see USP method <1174>; see also, Carr, R. L. Evaluating Flow Properties of Solids. Chem Eng. 1965, 72, 163-168). Tapped Bulk Density=M/Vf. [formula] [formula]

[5] = Intrinsic dissolution of compressed disc, Sirius T3; format: physicochemical; conditions: Britton-Robinson buffer, average pH 3.12 (Form A), room temperature, disc 7.07 mm^2
Procedure: In one embodiment, the extrapolated intrinsic dissolution rate is measured using dissolution disc having 7.07 mm^2 which was compressed under high pressure, ca. 100 kg, using a constructed die. In one embodiment, a Sirius T3 was used as the dissolution apparatus containing 20 mL of test media with stirring speed of the paddle set to −30%. In some embodiments, the dissolution was measured at room temperature. In one embodiment, dissolution was measured over 1 pH sector by ultraviolet (UV) spectrometry. In one embodiment, the UV spectra of the dissolution solution was collected over time, for example every 30 seconds, and converted to concentration using the molar extinction coefficient (MEC) by UV-metric titration. In one embodiment, the intrinsic dissolution rate was calculated by dividing the extrapolated dissolution rate by the surface area of the dissolution disc. In one embodiment, the dissolution media was Britton-Robinson buffer solution. In one embodiment, the dissolution media was pH 3.1 Britton-Robinson buffer solution. In one embodiment, the dissolution media was pH 3.2 Britton-Robinson buffer solution. In another embodiment, the dissolution media was pH 4.7 Britton-Robinson buffer solution.
Intrinsic Dissolution: Appropriate weight of the pure test compound material were used to fill the cavity of the dissolution disc and compressed under high pressure, ca. 100 kg, using a constructed die. No additives were added, avoiding any external interference in the intrinsic dissolution profile. The resulting non-disintegrating disc was transferred to the dissolution apparatus, Sirius T3, containing 20 ml of the test media at room temperature. The stirring speed of the paddle was set to −30%. Dissolution was then measured over 1 pH sector. The solution spectra was collected every 30 seconds over 120 collection points and converted to concentration using the molar extinction coefficient (MEC) by UV-metric titration. Intrinsic dissolution rate was calculated by dividing the extrapolated dissolution rate by the surface area of the disk (7.07 mm^2). All analysis was performed in duplicate, with XRPD both prior to and post dissolution analysis, where possible.
Dissolution media, Britton-Robinson buffer solutions, were prepared by adding a specified volume of sodium hydroxide (0.2 M) to 200 ml of a solution of mixed acid, of 0.04 M with respect to phosphoric acid (2.72 ml/l), acetic acid (2.30 ml/l) and boric acid (2.476 g/l). The amount of sodium hydroxide used to prepare each buffer is outlined below:
pH 3.2 Britton-Robinson buffer: 38 ml of sodium hydroxide.

[6] = cited from earlier work
[7] = Rep. 1, M/Vf, Vf = volume after 10,000 taps
[8] = Rep. 2, M/Vf, Vf = volume after 10,000 taps
[9] = listed as Form A Non-micronized

Avalanche Angle [2]	Avalanche Energy [2]	Avalanche Time [2]	Break Energy [2]	Rest Angle [2]	Interpretation (flow) [2]	BET constant, C [3]	Surface area [3]	Compressibility (Carr's) Index ([4]; Mean of duplicate)	Hausner Ratio ([4]; Mean of duplicate)	Tapped Bulk Density ([4]; Mean of duplicate)	Compressibility (Carr's) Index ([4]; Rep. 1)	Hausner Ratio ([4]; Rep. 1)	Tapped Bulk Density [4, 7]	Compressibility (Carr's) Index ([4]; Rep. 2)	Hausner Ratio ([4]; Rep. 2)	Tapped Bulk Density [4, 8]	Interpretation (flow) [4]	Extrapolated Dissolution Rate ([5]; Disc 1, 3.14 (Form C))	Extrapolated Dissolution Rate ([5]; Disc 2, 3.15 (Form C))	SMILES	also measured
68.05 deg	32.98 kJ/kg	7.4 s	86.41 kJ/kg	44.85 deg	Passable (Passable - may hang up 41-45)	37.98	12.3614 ± 0.0440 m^2/g	28.6	1.4	0.2 g/mL	27.55	1.42	0.16 g/mL	29.59	1.40	0.16 g/mL	Poor (23-35)	7.20 µg/min	9.43 µg/min	CCCCOCCOc1ccc(-c2ccc3c(c2)/C=C(/C(=O)Nc2ccc([S@@+]([O-])Cc4cncn4CCC)cc2)CCCN3CC(C)C)cc1 [Form A Micronised]	Particle Size D10 ([1]; listed as Form A Micronized): 0.582 μm; Particle Size D50 ([1]; listed as Form A Micronized): 3.226 μm; Particle Size D90 ([1]; listed as Form A Micronized): 7.576 μm
																				CCCCOCCOc1ccc(-c2ccc3c(c2)/C=C(/C(=O)Nc2ccc([S@@+]([O-])Cc4cncn4CCC)cc2)CCCN3CC(C)C)cc1 [Cenicriviroc, (S,E)-8-(4-(2-Butoxyethoxy)phenyl)-1-(2-methylpropyl)-N-(4-(((1-propyl-1H-imidazol-5-yl)methyl)sulfinyl)phenyl)-1,2,3,4-tetrahydrobenzo[b]azocine-5-carboxamide]	Water solubility [6]: poorly water-soluble
51.55 deg	20.28 kJ/kg	4.4 s	71.90 kJ/kg	41.30 deg	Passable (Passable - may hang up 41-45)	39.87	2.3071 ± 0.0058 m^2/g	6.0	1.1	0.5 g/mL	7.07	1.08	0.49 g/mL	5.00	1.05	0.48 g/mL	Excellent (5-15)	10.80 µg/min	11.38 µg/min	CCCCOCCOc1ccc(-c2ccc3c(c2)/C=C(/C(=O)Nc2ccc([S+]([O-])Cc4cncn4CCC)cc2)CCCN3CC(C)C)cc1 (stereo not drawn) [Form C]	Density and flow compared with the Form A samples ([2]; Revolution Analyzer flowability measurements): more dense and flows better than the Form A samples

SMILES	Avalanche Angle [2]	Avalanche Energy [2]	Avalanche Time [2]	Break Energy [2]	Rest Angle [2]	Interpretation (flow) [2]	BET constant, C [3]	Surface area [3]	Compressibility (Carr's) Index ([4]; Mean of duplicate)	Hausner Ratio ([4]; Mean of duplicate)	Tapped Bulk Density ([4]; Mean of duplicate)	Compressibility (Carr's) Index ([4]; Rep. 1)	Hausner Ratio ([4]; Rep. 1)	Tapped Bulk Density [4, 7]	Compressibility (Carr's) Index ([4]; Rep. 2)	Hausner Ratio ([4]; Rep. 2)	Tapped Bulk Density [4, 8]	Interpretation (flow) [4]	Extrapolated Dissolution Rate ([5]; Disc 1, 3.14 (Form C))	Extrapolated Dissolution Rate ([5]; Disc 2, 3.15 (Form C))	also measured
CCCCOCCOc1ccc(-c2ccc3c(c2)/C=C(/C(=O)Nc2ccc([S+]([O-])Cc4cncn4CCC)cc2)CCCN3CC(C)C)cc1 (stereo not drawn) [Form A Non-micronised]	72.60 deg	41.58 kJ/kg	6.5 s	138.38 kJ/kg	50.75 deg	Poor (Poor - must agitate, vibrate 46-55)	42.99	3.0295 ± 0.0122 m^2/g	35.4	1.5	0.2 g/mL	34.34	1.52	0.22 g/mL	36.36	1.57	0.21 g/mL	Very Poor			Particle Size D10 [1, 9]: 4.725 μm; Particle Size D50 [1, 9]: 13.803 μm; Particle Size D90 [1, 9]: 65.910 μm
